For assay [1], the system named is E. coli. The assay is described as follows: RIND XXIX reduction solution assay, Δ fluorescence. Conditions: E. coli (gram -) about 5×10^7 cells/ml, gramicidin S 0.1 mg/ml, 37° C. The class given is cell-based, Escherichia coli. The method, then: (§1) Bacterial suspensions were prepared by growing the cells in BHT broth to stationary phase overnight at 37° C. P. auruginosa was grown with agitation. About 40 ml of each overnight culture was centrifuged, decanted and washed once with 0.05 molar potassium phosphate buffer or 0.05 molar N-2-hydroxy-ethylpiperazine-N'-2-ethanesulfonic acid (HEPES) buffer, pH 7.8, and resuspended in buffer.
(§2) Dispersions containing RIND compounds were prepared by dissolving the RIND compound in N,N-dimethylformamide (DMF) at 16 mg compound per ml of solvent. An aliquot (250 μl) of the resulting solution was added to 500 μl of TRITON X-100 surfactant. This mixture was then added dropwise with stirring to 25 ml of 0.05 molar HEPES buffer. A dispersion of RIND XXIX was prepared similarly except that DMF was acidified with 0.1% sulfuric acid. Compositions containing water-compatible RIND compounds were prepared as described above except the surfactant was omitted.
(§3) Each test solution contained the following: dispersion of RIND XXIX (25 μl) prepared as described above, glucose (400 μl of 10% aqueous solution), tryptose (400 μl of 10% aqueous solution), trimethyl-1,4-benzoquinone ETA (500 μl of 1.5 mg/ml methanol). Aliquots (200 μl) of the mixture were mixed with solutions of the antibiotics (50 μl). The cell suspensions (50 μl) were then added. The final concentration of gramcidin S and tyrocidin were 0.1 mg/ml and 3.3 mg/ml, respectively. The final cell concentration was about 5×10^7 cells/ml. Cell control solutions contained all reagents except antibiotics. Background controls consisted of both buffer and solution controls. […]
(§4) The solutions were incubated at 37° C. for 30 minutes, and the change in fluorescence emission (Δ fluorescence) was determined as the difference between the readings taken when the solutions were first mixed and then after 30 minutes incubation. Measurements were made in a commercially available MICROFLUOR Reader (available from Dynatech Laboratories, Alexandria, Virginia, U.S.A.), modified with an excitation filter at 540 nm, an emission filter at 620 nm and a Xenon lamp. […]

Assay [2] has as its system E. coli. Kind of assay: MTT reduction solution assay, ΔOD 540 nm. Conditions: E. coli (-) 5×10^7, gramicidin S 0.00625 mg/ml, 37° C. In kind it is cell-based, Escherichia coli. As for the experimental part:
(§5) These examples illustrate the differentiation of bacteria using a tetrazolium salt and phenolic dye as the reducible compounds and two cyclic polypeptide antibiotics according to the present invention. The tetrazolium salt was 3-(4,5-dimethyl-2-thiazolyl) -2,5-diphenyl-2H-tetrazolium bromide (MTT) which forms a colored formazan dye when reduced. The phenolic dye was 2,6-dichloroindophenol (DCIP) which forms a colorless species when reduced.
(§6) Solutions of the reducible compounds were prepared with the following: HEPES buffer (3 ml, 0.05 molar, pH 7.5), TRITON X-100 nonionic surfactant (1% concentration), glucose (50 μl of 10% in water), tryptose (50 μl of a 10% solution in water), MTT (25 μl of 5 mg/ml methanol) or DCIP (25 μl of 3 mg/ml methanol) and phenazine methosultate ETA (25 μl of 3 mg/ml methanol).
(§7) Test solutions were prepared from the following: reducible compound solution from above (200 μl), 50 μl of either gramicidin S solution (6 mg/ml methanol and 9 ml of buffer) or tyrocidin solution (100 mg/ml methanol and 8 ml of buffer) and 50 μl of cell suspension. […] The change in optical density (ΔOD) was determined after 30 minutes at 37° C. at 540 nm for the MTT assay and at 620 nm for the DCIP assay using a commercially available spectrophotometer.
In general terms: Tetrazolium assays rely on reduction of a dye to a coloured formazan, in cell work by metabolically active cells.

Assay [3] deals with viable gram-positive and gram-negative bacteria. Kind of assay: Differentiation in RIND XXIX solution assays, overall result. The class given is cell-based. Conditions: gramicidin S 0.1 mg/ml, tyrocidin 3.3 mg/ml. As for the experimental part:
Each test solution contained the following: dispersion of RIND XXIX (25 μl) prepared as described above, glucose (400 μl of 10% aqueous solution), tryptose (400 μl of 10% aqueous solution), trimethyl-1,4-benzoquinone ETA (500 μl of 1.5 mg/ml methanol). Aliquots (200 μl) of the mixture were mixed with solutions of the antibiotics (50 μl). The cell suspensions (50 μl) were then added. The final concentration of gramcidin S and tyrocidin were 0.1 mg/ml and 3.3 mg/ml, respectively. The final cell concentration was about 5×10^7 cells/ml. Cell control solutions contained all reagents except antibiotics. Background controls consisted of both buffer and solution controls. The buffer control contained all reagents except antibiotics and cells. The solution control contained all reagents except cells.
The solutions were incubated at 37° C. for 30 minutes, and the change in fluorescence emission (Δ fluorescence) was determined as the difference between the readings taken when the solutions were first mixed and then after 30 minutes incubation. Measurements were made in a commercially available MICROFLUOR Reader (available from Dynatech Laboratories, Alexandria, Virginia, U.S.A.), modified with an excitation filter at 540 nm, an emission filter at 620 nm and a Xenon lamp.
This example illustrates the practice of this invention to identify a Proteus species in solution. Test solutions and cell control solutions were prepared and tested as described in Example 2 and 3 except that polymixin B was used at 0.01 mg/ml of methanol. The final cell concentration was about 5×10^7 cells/ml.

Assay [4] deals with various bacteria which are found in the human urinary tract. Kind of assay: Differentiation with RIND VII, overall result. The class given is cell-based. Conditions: gramicidin S 10^-4 molar. As for the experimental part: (§8) TERGITOL 7 anionic surfactant was used to differentiate viable bacteria according to the prior art method. Various concentrations of TERGITOL 7 surfactant were mixed with a 10% glucose solution (50 μl), 3-(4,5-dimethyl-2-thiazolyl)-2,5-diphenyl-2N-tetrazolium bromide (MTT) (25 μl at 5 mg/ml methanol) or a RIND VII dispersion (1.5 ml) and phenazine methosulfate ETA (25 μl at 3 mg/ml methanol). The volume of each test solution was brought to 3 ml with potassium phosphate buffer. A cell suspension (100 μl at about 10^8 cells/ml) was then added. The solutions were incubated at 37° C. for 15 and 30 minutes in the presence of either E. coli, a gram(-) bacterium, or S. aureus, a gram(+) bacterium. The amount of dye formed was then determined visually, and graded as follows: "O" indicates no dye formation, +/- indicates faint dye formation, 1+ indicates light dye formation, 2+ indicates moderate dye formation, 3+ indicates strong dye formation, and 4+ indicates very strong dye formation.
Gramicidin S, a cyclic polypeptide antibiotic, was similarly used with RIND VII in the differentiation of various bacteria which are found in the human urinary tract. Assays were performed as described above. The final concentration of gramicidin S in each test was 10^-4 molar. […] Dye measurements were made at 635 nm and expressed below as the change in optical density (ΔOD) which was corrected for background.

In assay [5] the test system is P. aeruginosa. The assay is described as follows: DCIP reduction solution assay, ΔOD 620 nm. Conditions: P. aeruginosa (-) 5×10^7, gramicidin S 0.00625 mg/ml, 37° C. The class given is cell-based, Pseudomonas aeruginosa. The method, then: as §5, §6, §7
A further assay deals with E. cloacae. The assay is described as follows: MTT reduction solution assay, ΔOD 540 nm. In kind it is cell-based, Enterobacter cloacae. Conditions: E. cloacae (-) 5×10^7, gramicidin S 0.00625 mg/ml, 37° C. The method, then:
as §5, §6, §7

Assay [6] deals with P. aeruginosa. The assay is described as follows: MTT reduction solution assay, ΔOD 540 nm. In kind it is cell-based, Pseudomonas aeruginosa. Conditions: P. aeruginosa (-) 5×10^7, gramicidin S 0.00625 mg/ml, 37° C. As for the experimental part:
as §5, §6, §7

In a further assay the test system is P. vulgaris. Kind of assay: RIND XXIX reduction solution assay, Δ fluorescence. In kind it is cell-based, Proteus vulgaris. Conditions: P. vulgaris (gram -) about 5×10^7 cells/ml, gramicidin S 0.1 mg/ml, 37° C. The method, then: as §1, §2, §3, §4
The test system of the next assay is K. pneumoniae. Kind of assay: DCIP reduction solution assay, ΔOD 620 nm. Conditions: K. pneumoniae (-) 5×10^7, gramicidin S 0.00625 mg/ml, 37° C. In kind it is cell-based, Klebsiella pneumoniae. As for the experimental part:
as §5, §6, §7

A further assay relates to S. faecalis. Kind of assay: RIND VII reduction solution assay, ΔOD 635 nm. The class given is cell-based, Streptococcus faecalis. Conditions: S. faecalis 7 × 10^7 /ml, antibiotic 10^-4 molar. The method, then: as §1
as §8, with “formation. […]” for “formation.”

gramicidin S: the “Δ Fluorescence (30 Minutes)” value is reported as > 4000 with E. coli [1] and 3491 in the assay on P. vulgaris. Besides, the “ΔOD, 540 nm after 30 Minutes” value in the assay with E. coli [2] stood at 1.123; in the assay on E. cloacae it was 0.931; in the assay on P. aeruginosa [6], 0.955. Further, the “differentiation between viable gram-positive and gram-negative bacteria, in words” value in [3] is “can be used with RIND XXIX to differentiate between viable gram-positive and gram-negative bacteria”. Further, the “inhibition of reduction of the RIND compound, in words” value in [4] is “selectively inhibits the reduction of the RIND compound by viable gram-positive bacteria but not gram-negative bacteria”. In addition, the “ΔOD, 620 nm after 30 Minutes” value in the assay on P. aeruginosa [5] is 1.040; in the assay on K. pneumoniae, 1.062. The “Corrected ΔOD (15 Minutes)” value in the assay on S. faecalis is listed as 0.125.

These data come from patent US4912036A, “Rapid differentiation of bacteria using cyclic polypeptide antibiotics” (Eastman Kodak Company, priority 1986, dated 1990).
